This note sets out measurements from patent publication US8871754B2, “Compounds and compositions for the treatment of parasitic diseases” (IRM LLC, priority 2012, dated 2014).

This test has as its system P. falciparum (NF54 or 3D7 strain) in infected human erythrocytes. Put plainly: Assay for P. falciparum proliferation in infected human blood cells (SYBR Green). Format: cell-based. The note with it: Plasmodium falciparum, Erythrocyte; NF54 or 3D7 strain, 72 hours, SYBR Green fluorescence; read-out: EC50 (nM), inhibitory efficacy in delaying P. falciparum proliferation in infected human blood cells. The protocol:
Assay for P. falciparum Proliferation in Infected Human Blood Cells
Compounds of the invention can be assayed to measure their capacity to inhibit proliferation of P. falciparum parasitemia in infected red blood cells. This parasite proliferation assay measures the increase in parasite DNA content using a DNA intercalating dye, SYBR Green® (INVITROGEN®) which has a high affinity for double stranded DNA.
NF54 or 3D7 P. falciparum strain is grown in complete culturing media until parasitemia reaches 3% to 8% with O+ human erythrocytes. […] 20 μl of screening media is dispensed into 384 well assay plates. 50 nl of compounds of the invention (in DMSO), including antimalarial controls (mefloquine, pyrimethamine and artemisinin), are then transferred into the assay plates, as well as DMSO alone to serve as a negative control for inhibition. Then 30 μl of a suspension of a NF54 or 3D7 P. falciparum infected erythrocytes in screening media is dispensed into the assay plates such that the final hematocrit is 2.5% with a final parasitemia of 0.3%. The plates are placed in a 37° C. incubator for 72 hours in a low oxygen environment containing 93% N2, 4% CO2, and 3% O2 gas mixture. 10 μl of lysis buffer (saponin, triton-X, EDTA) containing a 10× solution of SYBR Green I® in RPMI media is dispensed into the plates. The plates are lidded and kept at room temperature overnight for the lysis of the infected red blood cells. The fluorescence intensity is measured (excitation […], emission 530 nm) using the Envision™ system (Perkin Elmer). The percentage inhibition of 50%, […], is calculated for each compound.
For `CN(c1ccn2ncc(-c3ccc(C(F)(F)F)cc3)c2c1)S(=O)(=O)c1ccc(F)cc1` [Example 31, 4-fluoro-N-methyl-N-(3-(4-(trifluoromethyl)phenyl)pyrazolo[1,5-a]pyridine-5-yl)benzenesulfonamide], the EC50 was determined as 143 nM.

For the compound `CN(C(=O)c1ccn2ncc(-c3ccc(C(F)(F)F)cc3)c2c1)c1ccc(C(F)(F)F)cn1` [Example 33, N-methyl-3-(4-(trifluoromethyl)phenyl)-N-(5-(trifluoromethyl)pyridine-2-yl)pyrazolo[1,5-a]pyridine-5-carboxamide], the EC50 was 59 nM.

In the case of `CN(C(=O)c1ccc(F)cc1)c1ccn2ncc(-c3ccc(C(F)(F)F)cc3)c2c1` [Example 29, 4-fluoro-N-methyl-N-(3-(4-(trifluoromethyl)phenyl)pyrazolo[1,5-a]pyridine-5-yl)benzamide], the EC50 was 150 nM.

In the case of `CN(C(=O)c1ccc(C2CC2)cc1)c1ccn2ncc(-c3ccc(C(F)(F)F)cc3)c2c1` [Example 50, 4-cyclopropyl-N-methyl-N-(3-(4-(trifluoromethyl)phenyl)pyrazolo[1,5-a]pyridin-5-yl)benzamide], the EC50 amounted to 3850 nM.

Take `CN(C(=O)c1ccn2ncc(-c3ccc(C(N)=O)cc3)c2c1)c1ccc(Cl)cc1C=O` [Example 89, 3-(4-carbamoylphenyl)-N-(4-chloro-2-formylphenyl)-N-methylpyrazolo[1,5-a]pyridine-5-carboxamide]: the EC50 turned out to be 6 nM.

For `Fc1ccc(CNc2ccn3ncc(-c4ccc(C(F)(F)F)cc4)c3c2)cc1` [Example 35, N-(4-fluorobenzyl)-3-(4-(trifluoromethyl)phenyl)pyrazolo[1,5-a]pyridine-5-amine], the EC50 is 2040 nM.

Consider `CN(C(=O)c1ccn2ncc(-c3ccc(NC(=O)[C@@H](N)C4CCCCC4)cc3)c2c1)c1ccc(C#N)cc1` [Example 46, (S)-3-(4-(2-amino-2-cyclohexylacetamido)phenyl)-N-(4-cyanophenyl)-N-methylpyrazolo[1,5-a]pyridine-5-carboxamide], for which the EC50 came to 18 nM.

With `CC(c1ccn2ncc(-c3ccc(C(N)=O)cc3)c2c1)N1C(=O)COc2cc(F)ccc21` (stereo not shown) [Example 66, 4-(5-(1-(7-fluoro-3-oxo-2H-benzo[b][1,4]oxazin-4(3H)-yl)ethyl)pyrazolo[1,5-a]pyridin-3-yl)benzamide], the EC50 was found to be 49 nM.

Regarding `[O-][S+](Cc1ccn2ncc(-c3ccc(C(F)(F)F)cc3)c2c1)c1ccc(F)cc1` (stereo not shown) [Example 22, 5-(((4-fluorophenyl)sulfinyl)methyl)-3-(4-(trifluoromethyl)phenyl)pyrazolo[1,5-a]pyridine], the EC50 was 25 nM.

Regarding `CN(C(=O)c1ccc(F)cc1)c1ccn2ncc(-c3ccc(C(N)=O)cc3)c2c1` [Example 56, N-(3-(4-carbamoylphenyl)pyrazolo[1,5-a]pyridin-5-yl)-4-fluoro-N-methylbenzamide], the EC50 was 8 nM.

Take `Cc1cncc(N(C)C(=O)c2ccn3ncc(-c4ccc(C(F)(F)F)cc4)c3c2)c1` [Example 14, N-methyl-N-(5-methylpyridin-3-yl)-3-(4-(trifluoromethyl)phenyl)pyrazolo[1,5-a]pyridine-5-carboxamide]: the EC50 was found to be 134 nM.

Turning to `NC(=O)c1ccc(-c2cnn3ccc(C(=O)N4CCOc5cc(F)ccc54)cc23)cc1` [Example 71, 4-(5-(7-fluoro-3,4-dihydro-2H-benzo[b][1,4]oxazine-4-carbonyl)pyrazolo[1,5-a]pyridin-3-yl)benzamide], the EC50 amounted to 3 nM.

Regarding `CC(Cn1cccn1)N(C(=O)c1ccn2ncc(-c3ccc(C(N)=O)cc3)c2c1)c1ccc(C#N)cn1` (stereo not shown) [Example 77, N-(1-(1H-pyrazol-1-yl)propan-2-yl)-3-(4-carbamoylphenyl)-N-(5-cyanopyridin-2-yl)pyrazolo[1,5-a]pyridine-5-carboxamide], the EC50 is 146 nM.

On to `CN(C(=O)c1ccn2ncc(-c3ccc(C(N)=O)cc3)c2c1)C1CCC(C#N)CC1` (stereo not shown) [Example 82, 3-(4-carbamoylphenyl)-N-(4-cyanocyclohexyl)-N-methylpyrazolo[1,5-a]pyridine-5-carboxamide], for which the EC50 was 1160 nM.

Take `CN(C)C(=O)c1cc(-c2cnn3ccc(C(=O)N(C)c4ccc(C#N)cn4)cc23)cnc1N` [Example 87, 3-(6-amino-5-(dimethylcarbamoyl)pyridin-3-yl)-N-(5-cyanopyridin-2-yl)-N-methylpyrazolo[1,5-a]pyridine-5-carboxamide]: the EC50 turned out to be 41 nM.

As for `CN(C(=O)c1ccc(S(C)(=O)=O)cc1)c1ccn2ncc(-c3ccc(C(F)(F)F)cc3)c2c1` [Example 52, N-methyl-4-(methylsulfonyl)-N-(3-(4-(trifluoromethyl)phenyl)pyrazolo[1,5-a]pyridin-5-yl)benzamide], the EC50 is 13 nM.

As for `N#Cc1ccc(N(CC2CCOCC2)C(=O)c2ccn3ncc(-c4ccc(C(F)(F)F)cc4)c3c2)cc1` [Example 11, N-(4-cyanophenyl)-N-((tetrahydro-2H-pyran-4-yl)methyl)-3-(4-(trifluoromethyl)phenyl)pyrazolo[1,5-a]pyridine-5-carboxamide], the EC50 was found to be 6 nM.

In the case of `CN(C(=O)c1ccn2ncc(-c3ccc(NC(=O)CN)cc3)c2c1)c1ccc(C#N)cc1` [Example 43, 3-(4-(2-aminoacetamido)phenyl)-N-(4-cyanophenyl)-N-methylpyrazolo[1,5-a]pyridine-5-carboxamide], the EC50 is 9 nM.

For the compound `CN(C(=O)c1ccc(C(F)(F)F)cn1)c1ccn2ncc(-c3ccc(C(F)(F)F)cc3)c2c1` [Example 38, N-methyl-5-(trifluoromethyl)-N-(3-(4-(trifluoromethyl)phenyl)pyrazolo[1,5-a]pyridine-5-yl)picolinamide], the EC50 amounted to 179 nM.

For the compound `N#Cc1ccc(C(=O)N(CC2CCOCC2)c2ccn3ncc(-c4ccc(C(F)(F)F)cc4)c3c2)cc1` [Example 39, 4-cyano-N-((tetrahydro-2H-pyran-4-yl)methyl)-N-(3-(4-(trifluoromethyl)phenyl)pyrazolo[1,5-a]pyridin-5-yl)benzamide], the EC50 is 831 nM.

Turning to `Cc1ccc(N(C)Cc2ccn3ncc(-c4ccc(C(F)(F)F)cc4)c3c2)nc1` [Example 7, N,5-dimethyl-N-((3-(4-(trifluoromethyl)phenyl)pyrazolo[1,5-a]101yridine-5-yl)methyl)pyridine-2-amine], the EC50 was determined as 975 nM.

`CC(=O)Nc1ccc(-c2cnn3ccc(C(C)N(C)c4ccc(C)cn4)cc23)cc1` (stereo not shown) [Example 68, N-(4-(5-(1-(methyl(5-methylpyridin-2-yl)amino)ethyl)pyrazolo[1,5-a]pyridin-3-yl)phenyl)acetamide]: the EC50 was found to be 6750 nM.

Turning to `CN(C(=O)c1ccc(Cl)cc1)c1ccn2ncc(-c3ccc(C(F)(F)F)cc3)c2c1` [Example 55, 4-chloro-N-methyl-N-(3-(4-(trifluoromethyl)phenyl)pyrazolo[1,5-a]pyridin-5-yl)benzamide], the EC50 was 32 nM.

Turning to `Cc1cc(-c2cnn3ccc(C(=O)N(C)c4ccc(C#N)cc4)cc23)cc(C)c1N` [Example 80, 3-(4-amino-3,5-dimethylphenyl)-N-(4-cyanophenyl)-N-methylpyrazolo[1,5-a]pyridine-5-carboxamide], the EC50 came to 824 nM.

Turning to `CNC(=O)c1ccc(-c2cnn3ccc(C(=O)N4c5ccc(F)cc5OCC4C)cc23)cc1` (stereo not shown) [Example 74, 4-(5-(7-fluoro-3-methyl-3,4-dihydro-2H-benzo[b][1,4]oxazine-4-carbonyl)pyrazolo[1,5-a]pyridin-3-yl)-N-methylbenzamide], the EC50 turned out to be 52 nM.

Regarding `Cc1ccc(-c2cnn3ccc(C(=O)N(C)c4ccc(C#N)cn4)cc23)nc1` [Example 59, N-(5-cyanopyridin-2-yl)-N-methyl-3-(5-methylpyridin-2-yl)pyrazolo[1,5-a]pyridine-5-carboxamide], the EC50 came out at 228 nM.

Take `CN(C(=O)c1ccn2ncc(-c3cnc(N)c(Cl)c3)c2c1)c1ccc(C#N)cn1` [Example 86, 3-(6-amino-5-chloropyridin-3-yl)-N-(5-cyanopyridin-2-yl)-N-methylpyrazolo[1,5-a]pyridine-5-carboxamide]: the EC50 was found to be 10 nM.

Turning to `CN(C(=O)c1ccn2ncc(-c3ccc(N)cc3)c2c1)c1ccc(C#N)cc1` [Example 42, 3-(4-aminophenyl)-N-(4-cyanophenyl)-N-methylpyrazolo[1,5-a]pyridine-5-carboxamide], the EC50 turned out to be 18 nM.

For the compound `Cc1cc(-c2cnn3ccc(C(=O)N(C)c4ccc(C#N)cc4)cc23)cnc1N` [Example 81, 3-(6-amino-5-methylpyridin-3-yl)-N-(4-cyanophenyl)-N-methylpyrazolo[1,5-a]pyridine-5-carboxamide], the EC50 stood at 36 nM.

As to `CC1COc2cc(F)ccc2N1C(=O)c1ccn2ncc(-c3ccc(C(N)=O)cc3)c2c1` (stereo not shown) [Example 72, 4-(5-(7-fluoro-3-methyl-3,4-dihydro-2H-benzo[b][1,4]oxazine-4-carbonyl)pyrazolo[1,5-a]pyridin-3-yl)benzamide], the EC50 was found to be 5 nM.

Take `CNC(=O)c1ccc(-c2cnn3ccc(C(=O)N(c4ccc(C#N)cn4)C4COC4)cc23)cc1` [Example 76, N-(5-cyanopyridin-2-yl)-3-(4-(methylcarbamoyl)phenyl)-N-(oxetan-3-yl)pyrazolo[1,5-a]pyridine-5-carboxamide]: the EC50 worked out at 82 nM.
